ChEMBL document CHEMBL1150500, “Epoxidation of 6,7- and 10,11-oxidosqualenes by the squalene epoxidase present in rat liver microsomes” (Bioorg Med Chem Lett, 1993)

These compounds were tested against Squalene monooxygenase (Rattus norvegicus, UniProt P52020) (assay: Compound was tested for its inhibitory activity against squalene epoxidase from rat liver microsomes).
Chain of Squalene monooxygenase (P52020 whole entry): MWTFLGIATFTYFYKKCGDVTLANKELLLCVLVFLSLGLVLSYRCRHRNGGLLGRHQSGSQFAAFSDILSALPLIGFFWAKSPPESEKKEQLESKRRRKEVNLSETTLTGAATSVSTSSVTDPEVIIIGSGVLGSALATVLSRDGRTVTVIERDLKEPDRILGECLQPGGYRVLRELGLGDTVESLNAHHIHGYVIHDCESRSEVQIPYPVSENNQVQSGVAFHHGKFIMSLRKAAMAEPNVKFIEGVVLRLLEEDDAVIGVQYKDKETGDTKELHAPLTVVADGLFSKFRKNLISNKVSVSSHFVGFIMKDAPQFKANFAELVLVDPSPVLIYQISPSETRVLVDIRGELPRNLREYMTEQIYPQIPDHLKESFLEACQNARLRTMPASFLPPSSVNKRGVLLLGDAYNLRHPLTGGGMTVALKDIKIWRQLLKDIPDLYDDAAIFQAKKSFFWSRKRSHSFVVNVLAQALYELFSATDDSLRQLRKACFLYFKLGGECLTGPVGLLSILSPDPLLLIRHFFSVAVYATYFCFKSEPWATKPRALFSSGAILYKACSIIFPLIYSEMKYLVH
For `CC(C)=CCC/C(C)=C/CC/C(C)=C/CCC1OC1(C)CC/C=C(\C)CC[C@@H]1OC1(C)C` (some centres undefined), the IC50 was 13 µM. In the case of `CC(C)=CCC/C(C)=C/CC/C(C)=C/CC/C=C(\C)CCC1OC1(C)CCC=C(C)C` (centres undefined), the IC50 is reported as 31.8 µM. `CC(C)=CCC/C(C)=C/CC/C(C)=C/CCC1OC1(C)CC/C=C(\C)CCC=C(C)C` (centres undefined) gave an IC50 of 50.9 µM. In the case of `CC(C)=CCCC1(C)OC1CC/C(C)=C/CC/C=C(\C)CC/C=C(\C)CC[C@@H]1OC1(C)C` (some centres undefined), the IC50 is reported as 0.11 µM.
